This note sets out measurements from patent US11311523B2, “Pyridinone compound and use thereof” (KYUSHU UNIVERSITY, NATIONAL UNIVERSITY CORPORATION, priority 2015, dated 2022).

Structures are written as SMILES. pIC50: −log10 of the molar value.

For test [1], the system named is mouse lung carcinoma cell line (3LL). The test is described as follows: cellular invasion inhibition assay (Matrigel chamber). It is filed as cell-based. Conditions: 3LL cells, 22 hours, compared to DMSO. As to the method:
Pharmacological Test 2 (Cellular Invasion Inhibition Assay)
Three hundred microliters of a suspension of a mouse lung carcinoma cell line (3LL), a human fibrosarcoma cell line (HT-1080), or a human colon cancer cell line (DLD-1) in DMEM (serum free) was placed in the upper chamber with Matrigel (BD Biosciences) equilibrated with DMEM (serum free) for 120 minutes, while 500 μL of DMEM (with 10% FCS) was placed in the lower chamber. Each pyridinone compound or CPYPP dissolved at a predetermined concentration in DMSO was added to the culture media in both the upper and lower chambers. As a control, DMSO alone was added to the media. In all of the experiments, the final DMSO concentration was adjusted to 0.2%.
After the resulting products were cultured at 37° C. under 5% CO2 for 22 hours, the chambers were removed, and the culture media were removed. […] After staining, the inserts were cut out with a blade to prepare slides, and the cells were counted under an optical microscope.
The results were evaluated based on percent cell invasion (%: Invasion) and percent inhibition (%: inhibition). The percent cell invasion was obtained by converting the number of invading cells under each condition to percentage, taking the number of invading cells in the control, to which DMSO was added alone, as 100%; and the percent inhibition was obtained by deducting the percent cell invasion from 100.

Test [2] relates to primary mouse embryonic fibroblasts (MEFs). The test can be described thus: inhibition of ruffle formation after PDGF stimulation. It is filed as cell-based. The note with it: 1 hour pretreatment. From the text: Pharmacological Test 4 (Experiment on Inhibition of Ruffle Formation in Primary Mouse Embryonic Fibroblasts)
As disclosed in NPL 2, stimulation of primary mouse embryonic fibroblasts (MEFs) with a growth factor, such as PDGF, induces actin cytoskeletal remodeling, leading to the formation of two types of characteristic cellular membrane structures, peripheral ruffles and dorsal ruffles.
The peripheral ruffle and dorsal ruffle formation depends on Rac activation and requires the functions of DOCK1 and DOCK5. Importantly, it is known that the peripheral ruffle formation requires the functions of both DOCK1 and DOCK5 while the dorsal ruffle formation requires the function of DOCK1.
Therefore, the use of various pyridinone compounds in this assay system enables cell-level verification of DOCK1 selectivity.
Wild-type MEFs or MEFs from DOCK1-deficient (D1KO) mouse (obtained by the method disclosed in NPL 2) were suspended in DMEM (with 10% FBS) to a concentration of 2×10^4 cells/mL, and 150 μL of the resulting product was seeded on the glass portion of fibronectin-coated glass-bottom culture dishes.
After 36-hour culture at 37° C., the medium was changed to DMEM (serum free) containing 0.1% BSA, and 12-hour culture was performed to allow the cells to be serum-starved. Subsequently, the medium was changed to 100 μL of DMEM (serum free) containing DMSO in which each pyridinone compound or CPYPP was dissolved at a predetermined concentration, followed by pretreatment for 1 hour. A control was prepared using a culture medium to which DMSO was added alone. In all of the experiments, the final concentration of DMSO was adjusted to 0.2%.
Thereafter, 100 μL of DMEM that was warmed beforehand to 37° C. (serum free, containing 60 ng/mL of PDGF) was added to the above pretreated cells to stimulate the cells, followed by incubation at 37° C. for 7 minutes and further incubation at room temperature for 10 minutes in 150 μL of 4% paraformaldehyde solution to fix the cells. Then, PBS (containing 0.2% Triton X-100) was added to the fixed cells, and a 5-min incubation at room temperature was performed to permeabilize the cellular membranes. Thereafter, the cells were blocked with BSA, and the actin cytoskeleton was stained with Alexa Fluor 546-labeled phalloidin. Using a Zeiss LSM510 meta confocal laser scanning microscope, the number of cells in which peripheral ruffles and dorsal ruffles were formed was observed and counted.

A further test deals with T1, DHR-2 domain of DOCK1 (Homo sapiens, UniProt Q14185).
T1 construct: Polypeptide fragments that correspond to the DHR-2 domain of DOCK1, DOCK2, or DOCK5; Histidine-SUMO (N); made in house; host or cells: E. coli Arctic express (DE3)
T1 sequence (Q14185 1207-1617 limits assumed): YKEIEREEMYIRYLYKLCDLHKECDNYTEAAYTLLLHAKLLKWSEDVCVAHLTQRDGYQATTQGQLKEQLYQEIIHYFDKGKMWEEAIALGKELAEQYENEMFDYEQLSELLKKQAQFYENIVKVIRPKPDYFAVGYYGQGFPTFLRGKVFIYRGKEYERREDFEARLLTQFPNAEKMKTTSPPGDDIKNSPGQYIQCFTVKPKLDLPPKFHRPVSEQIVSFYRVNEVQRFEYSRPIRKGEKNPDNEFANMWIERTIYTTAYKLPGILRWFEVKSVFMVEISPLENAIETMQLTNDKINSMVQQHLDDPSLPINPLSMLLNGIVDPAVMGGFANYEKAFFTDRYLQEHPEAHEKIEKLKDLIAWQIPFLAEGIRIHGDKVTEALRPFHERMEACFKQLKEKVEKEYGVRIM
The test is described as follows: in vitro GEF assay (Bodipy-FL-GTP loading of Rac). It is filed as biochemical. From the text:
(§1) Pharmacological Test 1 (In Vitro GEF Assay)
(§2) DOCK1, DOCK2, and DOCK5, which are DOCK-A subfamily members, catalyze the GTP-GDP exchange reaction for Rac via the DHR-2 domain to activate Rac.
(§3) The in vitro GEF assay referred to in this specification used a labeled GTP (Bodipy-FL-GTP, Invitrogen), whose fluorescence intensity increases when bound to Rac.
(§4) Polypeptide fragments that correspond to the DHR-2 domain of DOCK1, DOCK2, or DOCK5 were expressed in E. coli Arctic express (DE3) cells as N-terminal Histidine-SUMO tag-fused recombinant proteins and purified by affinity column chromatography on nickel-NTA columns.
(§5) Rac was expressed in E. coli BL21 (DE3) cells as an N-terminal GST tag-fused recombinant protein and purified by affinity column chromatography on glutathione-Sepharose columns.
(§6) Subsequently, a reaction solution A containing 20 mM of MES-NaOH, 150 mM of NaCl, 10 mM of MgCl2, and 20 μM of GDP, and having an adjusted pH of 7.0 was incubated at room temperature for 30 minutes while being protected from light in the presence of each of the polypeptide fragments (DHR-2 domains) prepared above and each pyridinone compound or CPYPP dissolved at a predetermined concentration in DMSO or DMSO alone (control) to thus prepare GEF pretreated products. In all of the samples, the final DMSO concentration was adjusted to 3%.
(§7) Thereafter, 15 μM of Rac prepared above was added to the reaction solution A and directly allowed to stand on ice for 30 minutes to form a GDP-Rac complex.
(§8) Bodipy-FL-GTP was added to 100 μL of the reaction solution A containing the thus prepared GDP-Rac complex to a concentration of 3.6 μM, followed by equilibration at 30° C. for 2 minutes. After equilibration, 50 μL of the pretreated GEF was added for reaction at 30° C.
(§9) Changes in fluorescence intensity of Bodipy-FL-GTP were monitored during the reaction using an XS-N (Molecular Devices) or an Enspire spectrofluorometer (Perkin Elmer) (excitation wavelength: 488 nm, emission wavelength: 514 nm). The measured values were corrected so that the fluorescence intensity at the time that the reaction was initiated (0 seconds) was 0.
(§10) Then, an approximate curve (hyperbola) was obtained by plotting the calculated correction values on the y axis and the time (t) on the x axis using GraphPad Prism5 (GraphPad software), and the slope at t=0 to 10 seconds was considered to be an initial velocity of guanine nucleotide exchange reaction. The IC50 value was calculated taking the initial reaction velocity of the control, to which only a solvent (DMSO) was added, as 100%.

A further test concerns the target T2, DHR-2 domain of DOCK2 (Homo sapiens, UniProt Q92608).
T2 construct: Polypeptide fragments that correspond to the DHR-2 domain of DOCK1, DOCK2, or DOCK5; Histidine-SUMO (N); made in house; host or cells: E. coli Arctic express (DE3)
T2 sequence (Q92608 1211-1622 limits assumed): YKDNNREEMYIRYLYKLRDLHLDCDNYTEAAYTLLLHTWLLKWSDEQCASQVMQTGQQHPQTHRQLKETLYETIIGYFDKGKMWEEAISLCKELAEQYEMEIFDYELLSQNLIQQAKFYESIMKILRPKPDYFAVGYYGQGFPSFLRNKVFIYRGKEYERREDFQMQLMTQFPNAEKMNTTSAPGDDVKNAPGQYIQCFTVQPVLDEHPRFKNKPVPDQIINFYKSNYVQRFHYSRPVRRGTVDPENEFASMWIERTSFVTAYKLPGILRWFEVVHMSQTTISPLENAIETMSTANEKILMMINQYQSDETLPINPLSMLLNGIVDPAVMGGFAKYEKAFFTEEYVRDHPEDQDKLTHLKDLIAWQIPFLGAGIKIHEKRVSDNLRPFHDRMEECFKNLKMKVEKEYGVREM
The test can be described thus: in vitro GEF assay (Bodipy-FL-GTP loading of Rac). Conditions: FIG. 11. It is filed as biochemical.
Excerpt: as §1, §2, §3, §4, §5, §6, §7, §8, §9, §10

Another test concerns the target T3, DHR-2 domain of DOCK5 (Homo sapiens, UniProt Q9H7D0).
T3 construct: Polypeptide fragments that correspond to the DHR-2 domain of DOCK1, DOCK2, or DOCK5; Histidine-SUMO (N); made in house; host or cells: E. coli Arctic express (DE3)
The test can be described thus: in vitro GEF assay (Bodipy-FL-GTP loading of Rac). Format: biochemical. Conditions: FIG. 11.
Excerpt: as §1, §2, §3, §4, §5, §6, §7, §8, §9, §10

T3 sequence (Q9H7D0 1231-1642 limits assumed): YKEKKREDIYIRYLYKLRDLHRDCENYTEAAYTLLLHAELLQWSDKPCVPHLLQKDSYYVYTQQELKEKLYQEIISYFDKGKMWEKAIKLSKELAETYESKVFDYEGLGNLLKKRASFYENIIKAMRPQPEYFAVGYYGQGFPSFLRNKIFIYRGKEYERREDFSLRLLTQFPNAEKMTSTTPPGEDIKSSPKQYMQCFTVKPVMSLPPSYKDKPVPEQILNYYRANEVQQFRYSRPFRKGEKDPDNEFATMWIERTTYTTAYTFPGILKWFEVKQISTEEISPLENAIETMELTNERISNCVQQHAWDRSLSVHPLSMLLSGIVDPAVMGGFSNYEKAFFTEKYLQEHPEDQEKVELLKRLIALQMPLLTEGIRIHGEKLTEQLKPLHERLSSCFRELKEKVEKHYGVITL

For the compound `O=C(Cn1cc(S(=O)(=O)N2CCCC2)ccc1=O)c1ccc(-c2ccc(C(F)(F)F)cc2)cc1` [TS-16, 1-(2-oxo-2-(4′-(trifluoromethyl)-[1,1′-biphenyl]-4-yl)ethyl)-5-(pyrrolidin-1-ylsulfonyl)pyridin-2(1H)-one], the “inhibition of cancer cell (3LL) invasion” value in test [1] is listed as “significantly excellent inhibitory effect”.
With `Cc1cc(C(=O)Cn2cc(S(=O)(=O)N3CCCC3)ccc2=O)c(C)n1Cc1ccc(F)cc1` [Compound T-070444, 1-(2-(1-(4-fluorobenzyl)-2,5-dimethyl-1H-pyrrol-3-yl)-2-oxoethyl)-5-(pyrrolidin-1-ylsulfonyl)pyridin-2(1H)-one], in test [2], the dorsal ruffle formation entry is “significantly inhibited” and the peripheral ruffle formation entry is on record as “occurred in a similar manner to that of the control”.
For orientation: pIC50 means the IC50 on a negative log10 scale, so that one unit is a factor of ten. Read a low pIC50 as a high IC50. In the case of `O=C1NN(c2ccccc2)C(=O)C1=CC=Cc1ccccc1Cl` [CPYPP, reference compound], the figures for the pIC50 against DHR-2 domain of DOCK1 (FIG. 11), at DHR-2 domain of DOCK2 and against DHR-2 domain of DOCK5 were 4.70, 4.41 and 4.83, respectively. In addition, the “selectivity of GEF inhibition to DOCK1 versus DOCK2 and DOCK5” value on DHR-2 domain of DOCK1 (from IC50 values for DOCK1, DOCK2, DOCK5) is reported as “no selectivity”. Moreover, in test [2], the dorsal ruffle formation entry was “inhibited both peripheral ruffle formation and dorsal ruffle formation”. In addition, the peripheral ruffle formation entry in test [2] was “inhibited both peripheral ruffle formation and dorsal ruffle formation”.
